Assay results: patent US12246068B2, “Enzymatically activatable peptide-redox modulator conjugates and use thereof” (BRANDEIS UNIVERSITY, priority 2017, dated 2025)
Where a SMILES comes first, the peptide text is derived from it. [ ]: non-standard residue; d: D form. The star is where a group is joined. X1 = O=C(CCC[P+](c1ccccc1)(c1ccccc1)c1ccccc1)*; d(pY) = N[C@H](Cc1ccc(OP(=O)(O)O)cc1)C(=O)O; pY = N[C@@H](Cc1ccc(OP(=O)(O)O)cc1)C(=O)O; NBD = O=[N+]([O-])c1ccc(*)c2nonc12; Cbz = O=C(OCc1ccccc1)*; βAla = NCCC(=O)O; CH2F = FC*

Legend:
[1] = tested on: ALP; test: ALP catalyzed dephosphorylation of the precursors; type: biochemical; conditions: alkaline phosphatase (ALP), isolated enzyme; substrate 0.1 wt %, ALP 0.1 U/mL, 37° C.; read-out: t1/2 of ALP catalyzed dephosphorylation (converted)
Procedure: After obtaining all the precursors in Example 1, their behaviors were evaluated for EISA in vitro by using TEM and static light scattering (SLS) to examine the nanostructures formed before and after the addition of ALP into the solutions of the precursors. […] As a contrast, D-1P (50 μM) forms slightly more regular fibrous structures with diameter of 8±2 nm, which then interact with each other to form dense 2D/3D networks. […] After 24 h, the percentages of enzymatic dephosphorylation of D-1P and L-1P are about 90% and 80%, respectively. […] After being formed by dephosphorylation, L-1 and D-1 form different nanostructures. […] Similar to L-1, D-1 forms aggregated hollow colloids with a larger mean diameter (106±2 nm) and slightly thicker layers (thickness of 6±2 nm). L-2P or D-2P (50 μM) forms amorphous aggregates after dissolving in PBS buffer (pH=7.4) (FIG. 5). While the addition of ALP converts L-2P to L-2 to form uniform nanofibers with diameter of 9±2 nm, the enzymatic conversion of D-2P to D-2 results in nanoscale aggregates with diameter of 16±2 nm. […] As a charged, steric-hindered motif being connected to the peptide backbone via a relatively flexible linker, TPP disrupts intermolecular packing to disfavor the formation of long nanofibers, but it promotes interparticle interaction to favor polymorphic aggregates before and after enzymatic dephosphorylation. […]

[2] = tested on: Saos2 cells; test: MTT cell viability assay, Saos2; type: cell-based, human; conditions: for IC50 against Saos2 cells / IC50: unstimulated Saos2; for IC50: read-out: IC50 against Saos2 cells; for cytotoxicity to Saos2 cells: formed from the precursor by exogenous ALP, concentrations up to 200 μM; for cytotoxicity against Saos2 cell: even at 500 μM
Procedure: (§1) Saos2, HeLa, HepG2, T98G, MCF-7 and HS-5 cells were purchased from American-type Culture Collection (ATCC, USA). Saos2 cells were cultured in Macyo's 5A medium supplemented with 15% v/v fetal bovine serum, 100 U/mL penicillin and 100 μg/mL streptomycin. HeLa, HepG2, T98G, MCF-7 cells were cultured in MEM Medium supplemented with 10% v/v fetal bovine serum, HS-5 cells were cultured in Dulbecco's Modified Eagle's medium (DMEM) supplemented with 10% v fetal bovine serum (FBS), 100 U/mL penicillin and 100 μg/mL streptomycin. All cells were cultured at 37° C. in a humidified atmosphere of 5% CO2.
(§2) For the MTT Assay, all cells were seeded in a 96-well plate with the density of 1*10^4 cells per-well (total medium volume of 100 μL). 24 hours post seeding, the solutions with a serial of concentrations (5 concentrations) of different precursors were added to each well. Cells without the treatment of the precursors were used as the control. At designated time (24/48/72 hours), 10 μL MTT solution (5 mg/mL) was added to each well and incubated at 37° C. for another 4 h, and then 100 μL of SDS-HCl solution was added to stop the reduction reaction and dissolve the purple formazan. The absorbance of each well at 595 nm was measured by a multimode microplate reader. The cytotoxicity assay was performed three times and the average value of the three measurements was taken.
To investigate the cellular response to all the precursors, an MTT (3-(4,5-dimethylthiazol-2-yl)-2,5-diphenyl tetrazolium bromide) assay (Gerlier et al., J. Immunol. Methods 94:57 (1986), which is hereby incorporated by reference in its entirety) was first used to examine the viability of human osteosarcoma cells (Saos2, which expresses high level ALP (Farley et al., Metabolism 40:664 (1991), which is hereby incorporated by reference in its entirety)) cultured with the precursors. As a control, the viability of normal human bone marrow stromal cells (HS5) that express low level of ALP on cell surface was also examined (Zhou et al., Chem 1:246 (2016), which is hereby incorporated by reference in its entirety). […] In the presence of exogenous ALP, L-1P (or D-1P) turns into L-1 (or D-1), which is innocuous to Saos2 cells at the concentrations up to 200 μM. […] To investigate the retention of L-1 (or D-1) in the Saos2 cells, the cells were incubated with L-1P (D-1P, 50 μM) for different times. […] On the contrary, the concentration of D-1 decreases little after 6 h incubation. Moreover, the intracellular concentration of D-1 is 3.5 fold of that of L-1 at 6 h incubation, but the ratio increases to 10 fold at 24 h incubation (FIG. 8B).
Three kinds of established ALP inhibitors were used: L-phenylalanine (L-Phe) (Borgers, M. J., Histochem. Cytochem. 21:812 (1973), which is hereby incorporated by reference in its entirety), an efficient uncompetitive inhibitor of placental alkaline phosphatase (PLAP) levamisole, a well-known uncompetitive inhibitor of tissue-nonspecific alkaline phosphatase (TNAP) (Borgers, M. J., Histochem. Cytochem. 21:812 (1973), which is hereby incorporated by reference in its entirety) and CinnGEL 2Me (Zhu et al., Cancer Res. 67:10129 (2007), which is hereby incorporated by reference in its entirety), an inhibitor of protein tyrosine phosphatase (PTP1B) that localizes at the cytoplasmic face of the endoplasmic reticulum. […] Moreover, the PTP1B inhibitor (i.e., CinnGEL 2Me) is unable to rescue the cells, supporting the mechanism in FIG. 1 that EISA on the cell surface is the key processes for converting L-1P and D-1P to L-1 and D-1, respectively. To further confirm the role of ALPs on cell surface, the precursors were incubated together with ALP, which serves as an exogenous enzyme. The addition of ALP almost eliminates the cytotoxicity of the precursors. […]

[3] = tested on: HS5 cells; test: MTT cell viability assay, HS5; type: cell-based, human; conditions: 100 μM
Procedure: as §1
as §2, with “taken. […]” for “taken.”

[4] = tested on: selected Saos2 cell line; test: MTT assay on selected Saos2 cells after five weeks stimulation; type: cell-based, human
Procedure: as §2
Based on the above mechanism of cell death showing that L-1P (or D-1P) activates multiple death signaling pathways, it is believed that cancer cells unlikely would be able to evolve resistance toward this multiple targeting strategy. […] Such a plasticity should minimize the path to drug resistance. […]

[5] = tested on: T1, D-1P (NBD-βA-FFpYK, D enantiomer, with TPP on the ε-amino group of lysine)
T1 sequence: XFFXK

[6] = tested on: T2, D-2P (NBD-βA-FFpYK, D enantiomer, with acetyl on the ε-amine of lysine)
T2 sequence: XFFXK

[7] = tested on: T3, L-1P (NBD-βA-FFpYK, L enantiomer, with TPP on the ε-amino group of lysine)
T3 sequence: XFFXK

[8] = tested on: T4, L-2P (NBD-βA-FFpYK, L enantiomer, with acetyl on the ε-amine of lysine)
T4 sequence: XFFXK

[9] = 100 μM, 48 h, with levamisole (1 mM)
[10] = 100 μM, 48 h, without inhibitor
[11] = 200 μM, 48 h, with levamisole (1 mM)
[12] = 200 μM, 48 h, without inhibitor
[13] = co-incubated with the targeting motif TPP (3), 48 h

## O=C(CCC[P+](c1ccccc1)(c1ccccc1)c1ccccc1)NCCCC[C@@H](NC(=O)[C@@H](Cc1ccc(OP(=O)(O)O)cc1)NC(=O)[C@@H](Cc1ccccc1)NC(=O)[C@@H](Cc1ccccc1)NC(=O)CCNc1ccc([N+](=O)[O-])c2nonc12)C(=O)O [D-1P] ({NBD-βAla}-[dF][dF][d(pY)][dK](X1)-OH)
[1]
  half-life at 0.1 wt %: 33 min
[2]; [9]
  cell viability of Saos2 cells: 66.0%
[2]; [10]
  cell viability of Saos2 cells: 11.5%
[2]; [11]
  cell viability of Saos2 cells: 53.3%
[2]; [12]
  cell viability of Saos2 cells: 1.8%
[2]; 48 h
  IC50 against Saos2 cells: 57.4 ± 2.5 µg/mL
  IC50: 46 ± 2 µM
[3]
  cytotoxicity against HS5 cells: almost innocuous
[4]; cells selected by five weeks stimulation of D-1P (10 to 50 μM), read-out: IC50 against Saos2 cells after five weeks stimulation
  IC50: 35.2 µM

## O=C(CCC[P+](c1ccccc1)(c1ccccc1)c1ccccc1)NCCCC[C@@H](NC(=O)[C@@H](Cc1ccc(O)cc1)NC(=O)[C@@H](Cc1ccccc1)NC(=O)[C@@H](Cc1ccccc1)NC(=O)CCNc1ccc([N+](=O)[O-])c2nonc12)C(=O)O [D-1] ({NBD-βAla}-[dF][dF][dY][dK](X1)-OH)
[2]
  cytotoxicity to Saos2 cells: innocuous

## CC(=O)NCCCC[C@@H](NC(=O)[C@@H](Cc1ccc(OP(=O)(O)O)cc1)NC(=O)[C@@H](Cc1ccccc1)NC(=O)[C@@H](Cc1ccccc1)NC(=O)CCNc1ccc([N+](=O)[O-])c2nonc12)C(=O)O [D-2P] ({NBD-βAla}-[dF][dF][d(pY)][dK](Ac)-OH)
[2]; by itself, 48 h
  cytotoxicity against Saos2 cell: hardly exhibits cytotoxicity
[2]; [13]
  cytotoxicity against Saos2 cell: hardly exhibits cytotoxicity

## O=C(CCC[P+](c1ccccc1)(c1ccccc1)c1ccccc1)NCCCC[C@H](NC(=O)[C@H](Cc1ccc(OP(=O)(O)O)cc1)NC(=O)[C@H](Cc1ccccc1)NC(=O)[C@H](Cc1ccccc1)NC(=O)CCNc1ccc([N+](=O)[O-])c2nonc12)C(=O)O [L-1P] ({NBD-βAla}-FF[pY]K(X1)-OH)
[1]
  half-life at 0.1 wt %: 68.4 min
[2]; 50 μM, 48 h
  cell viability of unstimulated Saos2: 71.7%
[2]; [9]
  cell viability of Saos2 cells: 65.3%
[2]; [10]
  cell viability of Saos2 cells: 21.6%
[2]; [11]
  cell viability of Saos2 cells: 50.5%
[2]; [12]
  cell viability of Saos2 cells: 2.1%
[2]; 48 h
  IC50 against Saos2 cells: 76.1 ± 2.5 µg/mL
  IC50: 61 ± 2 µM
[3]
  cytotoxicity against HS5 cells: almost innocuous
[4]; 50 μM, 48 h, after five weeks stimulation
  cell viability of the selected cells: 20.5%

## O=C(CCC[P+](c1ccccc1)(c1ccccc1)c1ccccc1)NCCCC[C@H](NC(=O)[C@H](Cc1ccc(O)cc1)NC(=O)[C@H](Cc1ccccc1)NC(=O)[C@H](Cc1ccccc1)NC(=O)CCNc1ccc([N+](=O)[O-])c2nonc12)C(=O)O [L-1] ({NBD-βAla}-FFYK(X1)-OH)
[2]
  cytotoxicity to Saos2 cells: innocuous

## CC(=O)NCCCC[C@H](NC(=O)[C@H](Cc1ccc(OP(=O)(O)O)cc1)NC(=O)[C@H](Cc1ccccc1)NC(=O)[C@H](Cc1ccccc1)NC(=O)CCNc1ccc([N+](=O)[O-])c2nonc12)C(=O)O [L-2P] ({NBD-βAla}-FF[pY]K(Ac)-OH)
[2]; by itself, 48 h
  cytotoxicity against Saos2 cell: hardly exhibits cytotoxicity
[2]; [13]
  cytotoxicity against Saos2 cell: hardly exhibits cytotoxicity

## COC(=O)C[C@H](NC(=O)[C@H](C)NC(=O)[C@@H](NC(=O)OCc1ccccc1)C(C)C)C(=O)CF [zVAD-fmk, reference compound] (Cbz-Val-Ala-Asp(OMe)-CH2F)
[2]; 45 μM, by itself
  toxicity on Saos2 cells: no toxicity

## alkaline phosphatase
[5]
  percentage of enzymatic dephosphorylation after 24 h: the percentages of enzymatic dephosphorylation of D-1P and L-1P are about 90% and 80%, respectively
  t1/2 of ALP catalyzed dephosphorylation (substrate 0.1 wt %, ALP 0.1 U/mL): The t1/2 was determined to be 0.55 h and 1.14 h for D-1P and L-1P, respectively
[6]
  enzymatic conversion (dephosphorylation) seen by TEM: the enzymatic conversion of D-2P to D-2 results in nanoscale aggregates
[7]
  percentage of enzymatic dephosphorylation after 24 h: the percentages of enzymatic dephosphorylation of D-1P and L-1P are about 90% and 80%, respectively
  t1/2 of ALP catalyzed dephosphorylation (substrate 0.1 wt %, ALP 0.1 U/mL): The t1/2 was determined to be 0.55 h and 1.14 h for D-1P and L-1P, respectively
[8]
  enzymatic conversion (dephosphorylation) seen by TEM: the addition of ALP converts L-2P to L-2 to form uniform nanofibers
